Test results from article PMC12071706, “Impact of SARS-CoV-2 RBM Mutations N501Y and E484K on ACE2 Binding: A Combined Computational and Experimental Study” (International Journal of Molecular Sciences, 2025).

Molecular target: T1, human ACE2 protein (hACE2) (Homo sapiens, UniProt Q9BYF1)
T1 construct: His; purchased AbClonal (Woburn, MA, USA) RP01277; host or cells: HEK293
Test: biochemical
Type: binding

T1 sequence (Q9BYF1 18-740): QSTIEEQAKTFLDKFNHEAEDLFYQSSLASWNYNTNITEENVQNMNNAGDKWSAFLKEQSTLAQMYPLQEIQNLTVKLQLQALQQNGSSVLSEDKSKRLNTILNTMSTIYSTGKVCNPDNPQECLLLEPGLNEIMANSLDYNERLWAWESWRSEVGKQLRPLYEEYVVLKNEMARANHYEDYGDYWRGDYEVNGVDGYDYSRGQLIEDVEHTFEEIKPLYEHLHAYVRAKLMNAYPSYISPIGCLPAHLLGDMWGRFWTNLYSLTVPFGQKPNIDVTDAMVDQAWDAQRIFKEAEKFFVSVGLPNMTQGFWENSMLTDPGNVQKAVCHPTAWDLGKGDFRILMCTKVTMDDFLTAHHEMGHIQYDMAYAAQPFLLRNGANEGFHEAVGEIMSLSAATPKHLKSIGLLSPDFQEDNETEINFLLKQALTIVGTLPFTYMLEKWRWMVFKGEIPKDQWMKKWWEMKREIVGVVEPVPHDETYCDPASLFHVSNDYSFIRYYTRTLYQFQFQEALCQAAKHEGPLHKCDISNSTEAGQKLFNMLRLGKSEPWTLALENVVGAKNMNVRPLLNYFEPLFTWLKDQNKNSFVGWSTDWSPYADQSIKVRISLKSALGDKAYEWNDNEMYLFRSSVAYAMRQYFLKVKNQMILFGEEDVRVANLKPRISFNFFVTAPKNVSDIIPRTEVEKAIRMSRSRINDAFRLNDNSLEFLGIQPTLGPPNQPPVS

Row | Compound | Kd [µM] | N (stoichiometry) (pH 7.4) | fold increase in binding affinity (pH 7.4) [fold] | thermodynamic signature (enthalpic vs entropic contribution) (pH 7.4) | ΔGITC (pH 7.4) [kcal/mol] | ΔHITC (pH 7.4) [kcal/mol] | −TΔSITC (pH 7.4) [kcal/mol]
1 | CC(=O)NCC(=O)N[C@H](C(=O)N[C@@H](CCCCN)C(=O)NCC(=O)N[C@@H](Cc1ccccc1)C(=O)N[C@@H](CC(N)=O)C(=O)N[C@@H](CS)C(=O)N[C@@H](Cc1ccc(O)cc1)C(=O)N[C@@H](Cc1ccccc1)C(=O)N1CCC[C@H]1C(=O)N[C@@H](CC(C)C)C(=O)N[C@@H](CCC(N)=O)C(=O)N[C@@H](CO)C(=O)N[C@@H](Cc1ccc(O)cc1)C(=O)NCC(=O)N[C@@H](Cc1ccccc1)C(=O)N[C@@H](CCC(N)=O)C(=O)N1CCC[C@H]1C(=O)N[C@H](C(=O)N[C@@H](Cc1ccc(O)cc1)C(=O)NCC(N)=O)[C@@H](C)O)C(C)C [Beta/Gamma] | 0.31 ± 0.08 | – | – | – | – | – | –
2 | CC(=O)NCC(=O)N[C@H](C(=O)N[C@@H](CCCCN)C(=O)NCC(=O)N[C@@H](Cc1ccccc1)C(=O)N[C@@H](CC(N)=O)C(=O)N[C@@H](CS)C(=O)N[C@@H](Cc1ccc(O)cc1)C(=O)N[C@@H](Cc1ccccc1)C(=O)N1CCC[C@H]1C(=O)N[C@@H](CC(C)C)C(=O)N[C@@H](CCC(N)=O)C(=O)N[C@@H](CO)C(=O)N[C@@H](Cc1ccc(O)cc1)C(=O)NCC(=O)N[C@@H](Cc1ccccc1)C(=O)N[C@@H](CCC(N)=O)C(=O)N1CCC[C@H]1C(=O)N[C@H](C(=O)N[C@@H](CC(N)=O)C(=O)NCC(N)=O)[C@@H](C)O)C(C)C [Zeta] | 0.81 ± 0.06 | 0.76 ± 0.03 | 5.8 | the enthalpic and entropic contributions are of comparable magnitude within the experimental error | -8.31 ± 0.07 | -4.26 ± 0.24 | -4.06 ± 0.25
